Results from patent US20240024294A1, “COMPOSITIONS AND METHODS FOR THE TREATMENT OR PREVENTION OF PRETERM LABOR” (XOMA (US) LLC, priority 2020, published 2024).

Legend:
human PGF2α receptor = human PGF2α receptor (Homo sapiens, UniProt P43088); conditions: competitive radioligand binding, U.S. Pat. No. 8,415,480, read-out: inhibition constant (Ki); cited from earlier work
[1] = crystal form stability and hygroscopicity; assay type: physicochemical
Source text: For example, this compound is readily crystallized using a several distinct experimental procedures. Compound 3 assumes a single, reproducible crystal form upon crystallization from a variety of media and under different ambient conditions. […] For instance, impurities associated with atmospheric water are not readily integrated into the crystalline form of compound 3.

[2] = test system: pregnant women with threatened spontaneous preterm labor; experiment: Phase II clinical trial Part A: time to delivery; assay type: in vivo, human
Experimental: This example reports results of a Phase II clinical trial of compound (2) in pregnant women with threatened spontaneous preterm labor. In part A of the study, compound (2) was administered in open-label fashion to n=9 patients with gestational ages of from 28 to 34 weeks in order to assess pharmacokinetics and safety. In part B of the study, compound (2) was administered to a more expansive set of n=58 subjects in order to assess efficacy, as well as to further evaluate safety.
(§1) Subjects participating in Part A of the study were diagnosed with preterm labor and were already receiving an atosiban infusion for 48 hours. Compound (2) was administered orally to each subject in an amount of 500 mg twice daily for 7 days, with a loading dose of 1,000 mg on Day 1.
(§2) In Part A of the study, fetal cardiac safety was monitored using Doppler ultrasound, and compound (2) pharmacokinetics were assessed on days 1, 2, 3 and 7 of the study. Amniotic Fluid Index was monitored from days 1 to 14. Time to delivery was also assessed.

[3] = biological target: T1, Pept1 transporter protein (Homo sapiens, UniProt P46059); experiment: Pept1 transporter substrate assessment; assay type: in vitro ADME; conditions: compound 2 and salts thereof
T1 sequence (P46059 1-708): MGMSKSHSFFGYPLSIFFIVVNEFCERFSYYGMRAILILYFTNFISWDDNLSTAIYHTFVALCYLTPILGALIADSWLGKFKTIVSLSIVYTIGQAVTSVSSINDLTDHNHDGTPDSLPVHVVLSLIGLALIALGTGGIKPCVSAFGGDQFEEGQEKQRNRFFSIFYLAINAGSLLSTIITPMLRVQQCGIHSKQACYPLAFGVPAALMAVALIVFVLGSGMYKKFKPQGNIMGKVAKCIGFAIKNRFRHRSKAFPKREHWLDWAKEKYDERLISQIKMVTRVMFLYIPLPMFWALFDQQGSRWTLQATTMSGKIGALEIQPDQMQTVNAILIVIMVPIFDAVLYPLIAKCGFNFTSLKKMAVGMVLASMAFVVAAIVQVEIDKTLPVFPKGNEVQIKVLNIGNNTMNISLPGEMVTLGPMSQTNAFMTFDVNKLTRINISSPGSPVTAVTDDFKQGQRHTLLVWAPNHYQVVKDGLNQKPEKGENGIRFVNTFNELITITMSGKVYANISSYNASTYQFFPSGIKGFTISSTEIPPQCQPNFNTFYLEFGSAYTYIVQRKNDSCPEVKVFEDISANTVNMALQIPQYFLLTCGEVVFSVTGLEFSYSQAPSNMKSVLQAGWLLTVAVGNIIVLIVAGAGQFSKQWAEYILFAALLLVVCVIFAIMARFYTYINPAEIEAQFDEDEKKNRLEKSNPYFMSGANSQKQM
Source text: Compound 2 is de-esterified by ambient esterases in the small intestine and subsequently penetrates the small intestinal epithelium passively. […] Pept1 is known to mediate the absorption of a variety of valinate esters, as described, for example, in Vig et al., Adv. Drug Deliv. Rev. 65:1370-1385 (2013). […] Despite the presence the valinate ester functionality, compound 2 and salts thereof are not dependent upon this transporter for absorption across the small intestinal epithelium. […] Rather, compound 2 and salts thereof are converted in vivo to a form that is readily absorbed in a manner independent of energy and local proton gradient. This beneficial property, coupled with the high aqueous solubility of compound I and salts thereof, fosters a pharmacokinetic profile in which compound 2 and salts thereof readily dissolve in an aqueous environment and are in turn converted into a form capable of transported-independent absorption.

[4] = test system: pregnant women with threatened spontaneous preterm labor; experiment: Phase II clinical trial Part B: efficacy to delay preterm birth; assay type: in vivo, human
Experimental: (§3) A total of n=58 patients were treated with compound (2) and atosiban, and n=55 patients were treated with placebo and atosiban. As in part A, patients underwent a 48-hour infusion with atosiban. On the first day of atosiban treatment, patients were administered either placebo or compound (2) in a loading dose of 1,000 mg. On subsequent days, patients were then administered either placebo or compound (2) twice daily in an amount of 500 mg per dose until delivery.
Gestational age was confirmed by a first trimester ultrasound scan or by fertilization date. […] Subjects were required to begin treatment with atosiban within 24 hours before starting study treatment.
All participants received intravenous atosiban as standard-of-care therapy according to the approved product label for 48 hours. Treatment with study medication was to be initiated ideally simultaneously or at a maximum within 24 hours after initiating atosiban treatment. The loading dose of compound (2) was 1000 mg, with a maintenance dose of 500 mg twice a day, each 12 hours apart, for 7 days. Women allocated to the control group received the same dosing regimen with placebo. Subjects were instructed to record IMP administration in a patient diary and had to bring both opened and unopened IMP packages to each visit, in order to allow the assessment of compliance with study treatment.
Efficacy to delay preterm birth was assessed using the following outcomes: • delivery within 48 hours from start of treatment medication; • delivery within 7 days from start of treatment medication; • delivery before 37 weeks gestational age; and • time to delivery measured from start of treatment medication.
As this study was a proof-of-concept study, a primary efficacy endpoint was not prospectively defined. Other outcomes included the following: • uterine contractions assessed by electrohysterography, tocodynamometry, or abdominal palpation at each hour during the first 6 hours after start of test treatment; and • maternal plasma concentrations and pharmacokinetics of compound (1) (the active metabolite of compound (2)) and fetal cord blood concentrations at the time of delivery.
Analyses of the incidence of delivery within 2 days (48 h), within 7 days (168 h) post-compound (2) administration start, and before 37 weeks of gestational age was performed using logistic regression with treatment group as the independent variable. Strata effects (gestational age and number of fetuses) were included within the model. The treatment effect was expressed as an adjusted odds ratio with 90% confidence intervals. Treatment by strata interaction terms were explored. Other covariates explored included the pre-dose uterine contraction rate as well as the possibility of a site-to-site effect. Time to delivery measured from start of IMP administration was analyzed using Cox's proportional-hazards model. In addition, a log-rank test was performed. The analysis was performed using SAS® statistical software Version 9.4. P-values <0.10 were considered to indicate statistical significance.

[5] = relative to compound 1; cited from earlier work
[6] = Phase II clinical trial Part A: plasma pharmacokinetics; assay type: in vivo, human
Experimental: as §1, §2

[7] = test system: pregnant women with threatened spontaneous preterm labor; experiment: Phase II clinical trial Part B: adverse events; assay type: in vivo, human; conditions: patients undergoing atosiban infusion
Experimental: as §3
All participants received intravenous atosiban as standard-of-care therapy according to the approved product label for 48 hours. […]
Safety was assessed by way of the following outcomes: • maternal incidence of adverse events (AEs), treatment-emergent adverse events (TEAEs), clinically significant changes in laboratory safety tests, and vital signs from Day 1 until 28 days after birth; • incidence of AEs indicating fetal distress, such as growth retardation and/or changes in fetal heart rate monitoring and/or amniotic fluid index (AFI) or amniotic fluid volume (in twins); and incidence of neonates experiencing adverse events, as well as clinically significant changes in vital signs, Apgar score, weight and head circumference at birth, and a measure of neonatal morbidity from birth until 28 days after birth.

[8] = test system: pregnant women with threatened spontaneous preterm labor; experiment: Phase II clinical trial Part A: safety (Doppler ultrasound, Amniotic Fluid Index, adverse events); assay type: in vivo, human
Experimental: as §1, §2

human PGF2α receptor, sequence (P43088 whole entry): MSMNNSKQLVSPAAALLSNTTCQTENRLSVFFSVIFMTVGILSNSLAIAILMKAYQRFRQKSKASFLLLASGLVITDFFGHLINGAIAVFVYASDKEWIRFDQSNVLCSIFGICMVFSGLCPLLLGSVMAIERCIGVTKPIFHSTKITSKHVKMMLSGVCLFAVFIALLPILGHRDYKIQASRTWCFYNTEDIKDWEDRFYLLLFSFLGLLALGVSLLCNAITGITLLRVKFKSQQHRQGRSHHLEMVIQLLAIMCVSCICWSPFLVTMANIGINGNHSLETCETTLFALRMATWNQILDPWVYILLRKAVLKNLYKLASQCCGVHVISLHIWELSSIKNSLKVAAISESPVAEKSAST

## O=C(N[C@@H](CCO)c1ccc(F)cc1)C1SCCN1S(=O)(=O)c1ccc(-c2ccccc2)cc1 (stereo in doubt) [Compound 1, 3-([1,1′-biphenyl]-4-ylsulfonyl)-N-[1-(4-fluorophenyl)-3-hydroxypropyl]-1,3-thiazolidine-2-carboxamide]
Human PGF2α receptor
  Ki: 6 nM

## CC(C)[C@H](N)C(=O)OCC[C@H](NC(=O)[C@@H]1SCCN1S(=O)(=O)c1ccc(-c2ccccc2)cc1)c1ccc(F)cc1.Cl [Compound 3, (3S)-3-({[(2S)-3-(biphenyl-4-ylsulfonyl)-1,3-thiazolidin-2-yl]carbonyl}-amino)-3-(4-fluorophenyl)propyl L-valinate hydrochloride]
[1]
  hygroscopicity: low hygroscopicity
[1]; ambient conditions and elevated relative humidity
  stability of crystal form: extended stability

## CC(C)[C@H](N)C(=O)OCC[C@H](NC(=O)[C@@H]1SCCN1S(=O)(=O)c1ccc(-c2ccccc2)cc1)c1ccc(F)cc1 [compound (2), (3S)-3-({[(2S)-3-(biphenyl-4-ylsulfonyl)-1,3-thiazolidin-2-yl]carbonyl}-amino)-3-(4-fluorophenyl)propyl L-valinate]
[2]; 9 singleton patients, 1,000 mg loading then 500 mg twice daily oral 7 days, on 48 h atosiban infusion
  patients that did not deliver within 7 days of administration: 8 patients
[2]; 9 singleton patients, oral compound (2) 7 days, on atosiban infusion
  Mean±SD time to delivery: 41 ± 23 days
[3]
  substrate for the Pept1 transporter protein: not substrates
[4]; all women, atosiban + compound (2) vs atosiban + placebo, adjusted odds ratio
  OR (90% CI), delivery ≤48 h: 0.52
[4]; all women, vs atosiban + placebo
  OR (90% CI), delivery ≤7 days: 1.00
[4]; in combination with atosiban, vs atosiban and placebo (FIG. 7)
  reduction in uterine contractions relative to baseline: more sustained reduction
[4]; singleton pregnancy, 24 to 30 weeks GA
  delivery rate within 7 days: 14.3%
[4]; singletons only, GA 24 to 30 wks at BL, vs atosiban + placebo
  OR (90% CI), delivery ≤7 days: 0.53
[4]; singletons only, vs atosiban + placebo
  OR (90% CI), delivery ≤48 h: 0.39
[4]; twins only, vs atosiban + placebo
  OR (90% CI), delivery ≤48 h: 2.05
[5]
  solubility in water and in FeSSIF and FaSSIF media: improvements
[6]; Part A
  plasma concentrations and pharmacokinetic parameters compared with non-pregnant women: similar
[6]; Part A, 1,000 mg loading dose on Day 1
  day on which steady-state concentrations were achieved: 1 days
[6]; Part A, oral, day 1 to day 7, on atosiban
  absorption (plasma concentration vs. time profiles): well absorbed
[6]; Part A, listed as Compound (2)
  plasma concentrations and pharmacokinetic parameters compared with non-pregnant women: comparable
[7]
  adverse events compared with placebo: fewer adverse events
[8]
  adverse events reported for the fetuses: No adverse events
[8]; days 1 to 14 (FIG. 3)
  Amniotic Fluid Index: no clinically significant changes
[8]; fetal cardiac safety
  Doppler ultrasound findings, effect on the ductus arteriosus: no constrictive effect on the ductus arteriosus
[8]; oral administration for 7 days, women receiving atosiban
  tolerability: well tolerated
[8]; over the dosing period (FIG. 2)
  ductus arteriosus Pulsatility Index: did not decrease
